Laboratory results: US9469645B2, “Compounds and compositions for the treatment of parasitic diseases” (Novartis AG, priority 2009, dated 2016)

Tests used:
[1] = system: W2 strain; assay: parasite proliferation assay in infected red blood cells (SYBR Green I), W2 strain; assay type: cell-based; conditions: Erythrocyte
Source text: (§1) Compounds of the invention can be assayed to measure their capacity to inhibit proliferation of parasitemia in infected red blood cells. The proliferation is quantified by the addition of SYBR Green I (INVITROGEN)® dye which has a high affinity for double stranded DNA.

[2] = system: Trypanosoma brucei Lister 427 strain; assay: Trypanosoma brucei proliferation assay (Cell Titer Glo); assay type: cell-based; conditions: Lister 427 bloodstream form, 48 hours, read-out: EC50, proliferation of T. brucei
Source text: Compounds of the invention can be assayed to measure their capacity to inhibit proliferation of kinetoplastid parasite Trypanosoma brucei. The proliferation is quantified by the addition of Cell Titer Glo (Promega®) a luminescent cell viability assay that measures the number of viable cells in culture based on the quantification of cellular ATP amount, which is an indicator of metabolically active cells.
The following assay illustrates the invention without in any way limiting the scope of the invention. This parasite proliferation assay measures the increase in parasite growth using an assay that measures ATP activity, Cell Titer Glo®.
Trypanosoma brucei Lister 427 strain is grown in HMI-9 Trypanosome media for T. brucei bloodstream form. 30 μl of HMI-9 media is dispensed into 384 well assay plates. 200 nl of compounds of the invention (in DMSO), including anti-trypanosome controls (Pentamidine and suramin), are then transferred into the assay plates, as well as DMSO alone to serve as a negative control for inhibition. Then 25 μl of a suspension of T. brucei culture in HMI-9 media is dispensed into the assay plates. The final concentration of parasites in culture corresponds to 1.7% of 0.5 uM ATP activity with Cell Titer Glo® in HMI-9 media. […] The plates are then read for luminescence.

[3] = molecular target: cannabinoid receptor 1 (CB1) (Homo sapiens, UniProt P21554); assay: cannabinoid receptor 1 (CB1) IC50; assay type: binding; conditions: read-out: IC50 against CB1
[4] = molecular target: mitogen-activated protein kinase-activated protein kinase 2 (MapKap2 or MK-2) (Homo sapiens, UniProt P49137); assay: MK-2 enzyme inhibition, single point concentration; assay type: biochemical
[5] = system: 3D7 P. falciparum strain; assay: parasite proliferation assay in infected red blood cells (SYBR Green I); assay type: cell-based, Plasmodium falciparum; conditions: Plasmodium falciparum, 3D7, Erythrocyte, 3D7 strain; read-out: EC50 3D7 strain
Summary of the method: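 P. falciparum 3D7 grown in O+ human erythrocytes to 3–8% parasitemia and exposed to compounds. Proliferation read as the increase in parasite DNA. Detection used SYBR Green I in saponin/triton-X/EDTA lysis buffer, with overnight lysis at room temperature.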

[6] = system: W2 strain; assay: parasite proliferation assay in infected red blood cells (SYBR Green I), W2 strain; assay type: cell-based, Plasmodium falciparum; conditions: Plasmodium falciparum, Erythrocyte
Source text: as §1

mitogen-activated protein kinase-activated protein kinase 2 (MapKap2 or MK-2), sequence (P49137 whole entry): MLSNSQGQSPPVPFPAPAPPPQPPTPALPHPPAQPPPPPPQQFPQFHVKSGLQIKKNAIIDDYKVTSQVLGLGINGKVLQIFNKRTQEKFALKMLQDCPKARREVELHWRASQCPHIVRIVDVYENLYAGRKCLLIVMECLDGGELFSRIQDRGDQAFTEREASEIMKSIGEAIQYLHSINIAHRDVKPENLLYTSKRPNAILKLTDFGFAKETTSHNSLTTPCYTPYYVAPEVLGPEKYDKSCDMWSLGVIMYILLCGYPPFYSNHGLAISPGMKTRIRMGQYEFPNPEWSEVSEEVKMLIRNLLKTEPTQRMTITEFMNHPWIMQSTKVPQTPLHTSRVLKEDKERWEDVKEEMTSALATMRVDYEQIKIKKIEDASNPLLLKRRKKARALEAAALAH
cannabinoid receptor 1 (CB1), sequence (P21554 whole entry, species assumed): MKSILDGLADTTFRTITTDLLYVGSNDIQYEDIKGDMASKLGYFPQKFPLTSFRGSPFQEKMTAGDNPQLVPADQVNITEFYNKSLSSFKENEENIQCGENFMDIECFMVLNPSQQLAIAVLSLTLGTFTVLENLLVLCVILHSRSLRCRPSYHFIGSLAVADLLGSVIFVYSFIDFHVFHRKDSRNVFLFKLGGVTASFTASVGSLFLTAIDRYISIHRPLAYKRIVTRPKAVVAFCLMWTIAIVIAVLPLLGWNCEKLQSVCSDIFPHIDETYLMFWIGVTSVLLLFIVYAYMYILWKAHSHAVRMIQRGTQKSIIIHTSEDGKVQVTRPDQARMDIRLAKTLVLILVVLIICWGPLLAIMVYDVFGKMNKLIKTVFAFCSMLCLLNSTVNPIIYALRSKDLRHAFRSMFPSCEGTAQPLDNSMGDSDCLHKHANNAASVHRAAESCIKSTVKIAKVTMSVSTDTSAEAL

| Structure (SMILES) | EC50 [1] | EC50 [2] | IC50 [3] | inhibition of MK-2 [4] | EC50 [5] | EC50 [6] |
| --- | --- | --- | --- | --- | --- | --- |
| CC(C)(N)C(=O)N1CCn2c(nc(-c3ccc(F)cc3)c2Nc2ccc(F)c(F)c2)C1 [Example 29, 2-amino-1-(3-(3,4-difluorophenylamino)-2-(4-fluorophenyl)-5,6-dihydroimidazo[1,2-a]pyrazin-7(8H)-yl)-2-methylpropan-1-one] | 36 nM | 7000 nM | > 30000 nM | 15% | 30 nM | – |
| CC1(C)c2nc(-c3ccc(F)cc3)c(Nc3ccc(F)cc3)n2CCN1C(=O)CN [example 412, 2-amino-1-(2-(4-fluorophenyl)-3-(4-fluorophenylamino)-8,8-dimethyl-5,6-dihydroimidazo[1,2-a]pyrazin-7(8H)-yl)ethanone] | – | 10000 nM | 24000 nM | 7% | 10 nM | 6 nM |
